Among the data in PubChem BioAssay (NCI) are TGI and GI50 values, retold here.

Test systems include NCI/ADR-RES ovarian; BT-549 breast; RXF 393 renal; SF-539 CNS; SK-MEL-5 melanoma; COLO 205 colon; KM12 colon; NCI-H460 lung; SW-620 colon; OVCAR-4 ovarian.
Holding throughout (assay): growth of human tumour cells (NCI), 48 h

The structures appear in SMILES notation. Where “and” joins values, the source holds several entries; their conditions need not be identical. Equal entries are not always repeated.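 These data come from cells grown in 96-well plates and exposed to compound for 48 hours at five concentrations. GI50 marks 50% less growth. TGI marks complete inhibition of growth.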 A value given as a limit tells only on which side of the number the result lay.

On to `CCOc1ccc2nc(-c3ccc(O)cc3)sc2c1`, for which the TGI in the assay with NCI/ADR-RES ovarian, with BT-549 breast, with RXF 393 renal, with SF-539 CNS, in the assay on SK-MEL-5 melanoma and in the assay on COLO 205 colon was greater than 100 µM each time. The TGI with KM12 colon, in the assay with NCI-H460 lung and with SW-620 colon was greater than 100 µM in each case.
`O=C1OC(c2ccccc2)=N/C1=C\c1cccnc1`: the TGI in the assay with NCI/ADR-RES ovarian, in the assay with BT-549 breast, in the assay with RXF 393 renal, with SF-539 CNS, in the assay on OVCAR-4 ovarian and with SK-MEL-5 melanoma was greater than 100 µM in each case. The TGI with KM12 colon, in the assay on NCI-H460 lung and in the assay with SW-620 colon was greater than 100 µM throughout.
Regarding `C/C(CC/C(C)=N/O)=N\O`, the TGI with NCI/ADR-RES ovarian, in the assay on BT-549 breast, in the assay with RXF 393 renal, with SF-539 CNS, in the assay on OVCAR-4 ovarian and in the assay with SK-MEL-5 melanoma was greater than 100 µM in each case. For the same molecule, the TGI in the assay on COLO 205 colon, in the assay on KM12 colon, in the assay with NCI-H460 lung and in the assay on SW-620 colon was greater than 100 µM throughout.
Consider `CS(=O)(=O)c1ccc(/C=N/NC(N)=S)cc1`, for which the TGI with NCI/ADR-RES ovarian, in the assay with BT-549 breast, in the assay on RXF 393 renal, in the assay on OVCAR-4 ovarian, in the assay on SK-MEL-5 melanoma and with COLO 205 colon was greater than 100 µM each time. Besides, the TGI in the assay with KM12 colon, in the assay on NCI-H460 lung and in the assay with SW-620 colon was greater than 100 µM each time.
On to `O=C1OC[C@@H]2[C@@H](O)CCCCCN12`, for which the TGI with NCI/ADR-RES ovarian, in the assay with BT-549 breast, in the assay with RXF 393 renal, in the assay with SF-539 CNS, in the assay on OVCAR-4 ovarian and in the assay with SK-MEL-5 melanoma was greater than 100 µM each time. Besides, the TGI with COLO 205 colon, in the assay with KM12 colon, in the assay on NCI-H460 lung and with SW-620 colon was greater than 100 µM each time.
Regarding `COc1cc2c(cc1OC)-c1cc3ccccc3c[n+]1CC2`, the TGI in the assay with NCI/ADR-RES ovarian, in the assay on BT-549 breast, with RXF 393 renal, in the assay on SF-539 CNS, in the assay on OVCAR-4 ovarian and with SK-MEL-5 melanoma was greater than 100 µM throughout. Moreover, the TGI in the assay with COLO 205 colon, in the assay with KM12 colon, in the assay with NCI-H460 lung and in the assay with SW-620 colon was greater than 100 µM each time.
For the molecule `CCS(=O)(=O)N1CCC(C(C)n2c(C)c(C(=O)NCc3c(OC)cc(C)[nH]c3=O)c3ccccc32)CC1` (stereo not drawn), the GI50 in the assay on NCI/ADR-RES ovarian, with RXF 393 renal, with SF-539 CNS, in the assay on OVCAR-4 ovarian, in the assay with SK-MEL-5 melanoma and in the assay on COLO 205 colon was greater than 100 µM in each case. In addition, the GI50 in the assay with KM12 colon, with NCI-H460 lung and with SW-620 colon was greater than 100 µM each time. The TGI in the assay on NCI/ADR-RES ovarian, in the assay on RXF 393 renal, in the assay on SF-539 CNS, in the assay on OVCAR-4 ovarian, in the assay on SK-MEL-5 melanoma and with COLO 205 colon was greater than 100 µM throughout. The TGI in the assay on KM12 colon, with NCI-H460 lung and in the assay on SW-620 colon was greater than 100 µM each time.
In the case of `COC1=C2CC(C)CC(OC)C(O)C(C)/C=C(\C)C(OC(N)=O)C(OC)/C=C\C=C(/C)C(=O)NC(=C(C=NC(C)(C)C)C1=O)C2=O` (stereo not drawn), the TGI worked out at 44.4 µM in the assay on NCI/ADR-RES ovarian; 4.89 µM in the assay with RXF 393 renal; 24.2 µM with SF-539 CNS; 14.4 µM in the assay with OVCAR-4 ovarian; 15.4 µM in the assay with SK-MEL-5 melanoma; 10.6 µM with COLO 205 colon. Also, the TGI is 15 µM in the assay with KM12 colon, 18.4 µM in the assay with NCI-H460 lung and 20.9 µM in the assay on SW-620 colon.
For `CC[C@]1(O)C[C@H]2CN(CCc3c([nH]c4ccccc34)[C@@](C(=O)OC)(c3cc4c(cc3OC)N(C=O)[C@H]3[C@@](O)(C(=O)OC)[C@H](OC(C)=O)[C@]5(CC)C=CCN6CC[C@]43[C@@H]65)C2)C1`, the GI50 was 1.18 µM and 0.536 µM and 1.95 µM in the assay on NCI/ADR-RES ovarian; 0.00159 µM in the assay on COLO 205 colon; less than 0.001 µM with NCI-H460 lung. For the same molecule, the TGI in the assay with NCI/ADR-RES ovarian is 4.87 µM and 12.5 µM and 8.04 µM; with RXF 393 renal, 17.5 µM and 74.1 µM; in the assay on OVCAR-4 ovarian, 132 µM and 135 µM; in the assay with COLO 205 colon, 0.0463 µM and 0.22 µM; in the assay on NCI-H460 lung, 0.775 µM and 2.35 µM; in the assay on SW-620 colon it was 141 µM and 18 µM.
As for `Cc1ccccc1C(=O)c1c(O)c2c(c(O)c1Br)CCCC2`, the TGI worked out at 33.7 µM with RXF 393 renal; 33.4 µM in the assay on SF-539 CNS; 28.9 µM in the assay on OVCAR-4 ovarian; 35.4 µM in the assay with SK-MEL-5 melanoma; 34.2 µM in the assay on COLO 205 colon; 30.9 µM in the assay on KM12 colon. In addition, the TGI with NCI-H460 lung stood at 56.6 µM; with SW-620 colon it was 34.1 µM.
With `O=[N+]([O-])c1nc(-c2ccccn2)[nH]c1[N+](=O)[O-]`, the TGI with RXF 393 renal, with SF-539 CNS, in the assay with OVCAR-4 ovarian, in the assay with SK-MEL-5 melanoma, in the assay on COLO 205 colon and in the assay on KM12 colon was greater than 100 µM each time. Further, the TGI in the assay with NCI-H460 lung and in the assay on SW-620 colon was greater than 100 µM in each case.
As for `CCOC(=O)NC(Nc1ncccn1)(C(F)(F)F)C(F)(F)F`, the TGI with BT-549 breast, in the assay with RXF 393 renal, in the assay with SF-539 CNS, with KM12 colon and in the assay on NCI-H460 lung was greater than 100 µM each time.
With `NC(=O)c1nnc2ccc(F)cc2c1N`, the TGI with NCI/ADR-RES ovarian, with BT-549 breast, in the assay with SF-539 CNS, with OVCAR-4 ovarian, with SK-MEL-5 melanoma and in the assay with COLO 205 colon was greater than 100 µM throughout. For the same molecule, the TGI in the assay with KM12 colon, in the assay with NCI-H460 lung and with SW-620 colon was greater than 100 µM throughout.
Regarding `Nc1ncnc2c1ncn2C1OC(COP(=O)(O)O)C(O)C1O` (stereo not drawn), the TGI is greater than 32.2 µM with NCI/ADR-RES ovarian; greater than 50 µM with RXF 393 renal; greater than 50 µM in the assay with SF-539 CNS; greater than 50 µM in the assay with OVCAR-4 ovarian; greater than 50 µM in the assay on SK-MEL-5 melanoma; greater than 50 µM in the assay with COLO 205 colon. Moreover, the TGI in the assay on KM12 colon, in the assay on NCI-H460 lung and in the assay with SW-620 colon was greater than 50 µM throughout.
With `CC1(C)CCC[C@@]2(C)C1CCC1(C)C(CCc3ccoc3)/C(=C/OS(=O)(=O)O)CCC12` (stereo partly drawn) (tested in a mixture with another compound), the TGI with RXF 393 renal, with SF-539 CNS, in the assay with OVCAR-4 ovarian, with SK-MEL-5 melanoma, with COLO 205 colon and in the assay with KM12 colon was greater than 100 µM each time. The TGI in the assay on NCI-H460 lung and with SW-620 colon was greater than 100 µM throughout.
Regarding `C/C=C/[C@H]1O[C@@](O)([C@@H](C)[C@H](O)[C@H](C)[C@H]2OC(=O)/C(OC)=C/C(C)=C/[C@@H](C)[C@@H](O)[C@@H](CC)[C@@H](O)[C@H](C)C/C(C)=C/C=C/[C@@H]2OC)C[C@H](OC2CC(O)C(O)C(C)O2)[C@@H]1C` (stereo partly drawn), the TGI in the assay on NCI/ADR-RES ovarian amounted to 17.8 µM; with BT-549 breast it was 14.1 µM; with RXF 393 renal it was 23.2 µM; with OVCAR-4 ovarian, 32 µM; with SK-MEL-5 melanoma, 0.0828 µM; in the assay on COLO 205 colon, 3.96 µM. The TGI with KM12 colon amounted to 12 µM; in the assay with NCI-H460 lung, 4.81 µM; with SW-620 colon, 10.4 µM.
Regarding `C=C(CN(C)C)C(=O)c1ccccc1C`, the TGI with RXF 393 renal is 17.6 µM; in the assay on SF-539 CNS, greater than 60.8 µM; with OVCAR-4 ovarian, greater than 100 µM; with SK-MEL-5 melanoma, greater than 100 µM; with COLO 205 colon it was 31.9 µM; in the assay on KM12 colon it was greater than 100 µM. The TGI is greater than 100 µM in the assay on NCI-H460 lung and 33.1 µM in the assay with SW-620 colon.
Consider `O=C(Nc1cccc(-n2ccc3c(NC(=O)c4ccccc4)nccc32)c1)c1ccc(N2CCOCC2)c(C(F)(F)F)c1`, for which the GI50 in the assay with NCI/ADR-RES ovarian was 0.0352 µM; in the assay on BT-549 breast it was 0.183 µM; in the assay on RXF 393 renal, 0.0333 µM; in the assay with SF-539 CNS it was 0.0358 µM; with OVCAR-4 ovarian, 0.168 µM; in the assay on SK-MEL-5 melanoma, 0.0349 µM. Moreover, the GI50 with KM12 colon was 0.0364 µM; with NCI-H460 lung, 0.037 µM; with SW-620 colon, 0.0412 µM. The TGI is greater than 51.4 µM in the assay on NCI/ADR-RES ovarian; greater than 67.7 µM in the assay on BT-549 breast; 2.69 µM in the assay with RXF 393 renal; 3.42 µM in the assay on SF-539 CNS; greater than 70.7 µM in the assay with OVCAR-4 ovarian; 0.169 µM with SK-MEL-5 melanoma. Further, the TGI in the assay with KM12 colon is 1.36 µM; in the assay on NCI-H460 lung it was 26.9 µM; in the assay on SW-620 colon it was greater than 100 µM.
`O=C(O)c1cc2ccccc2c(N=Nc2ccccc2)c1O`: the TGI in the assay on NCI/ADR-RES ovarian was 90.4 µM; in the assay with BT-549 breast, 45.1 µM; in the assay on RXF 393 renal it was 72.5 µM; in the assay on OVCAR-4 ovarian it was greater than 100 µM; with SK-MEL-5 melanoma, 28.2 µM; with COLO 205 colon, 47.2 µM. For the same molecule, the TGI was 36.4 µM in the assay with KM12 colon and greater than 100 µM in the assay on SW-620 colon.
For `O=C(O)c1ccccc1NC(c1ccccc1)c1ccc2cccnc2c1O` (stereo not drawn), the TGI is greater than 49.3 µM in the assay on NCI/ADR-RES ovarian; 45.1 µM with BT-549 breast; 27.7 µM with RXF 393 renal; 22.1 µM in the assay with SF-539 CNS; 34.6 µM in the assay on OVCAR-4 ovarian; 24.5 µM with SK-MEL-5 melanoma. The TGI in the assay on COLO 205 colon is 80.9 µM; in the assay on KM12 colon, greater than 100 µM; in the assay on NCI-H460 lung it was 63.4 µM; in the assay with SW-620 colon, 46.4 µM.
As for `Fc1ccc2[nH]cc(-c3nc(-c4c[nH]c5ncccc45)cs3)c2c1`, the GI50 in the assay on RXF 393 renal is greater than 100 µM; in the assay on COLO 205 colon it was 1.7 µM; with KM12 colon, 4.65 µM; in the assay with NCI-H460 lung, 2.11 µM; in the assay on SW-620 colon it was greater than 100 µM. Also, the TGI with RXF 393 renal, with COLO 205 colon, with KM12 colon, with NCI-H460 lung and in the assay on SW-620 colon was greater than 100 µM each time.
